Assay results: publication PMC11123991, “Novel 9-Methylanthracene Derivatives as p53 Activators for the Treatment of Glioblastoma Multiforme” (Molecules, 2024)
One block for each molecule: values may come before it.

Assays:
[1] = system: human glioblastoma cell line U87; assay: MTT antiproliferative assay in U87 cells; type: cell-based; conditions: for inhibition at 10 µM: read-out: U87 (% Inhib. @ 10 µM); for IC50: mean ± SD (n = 3); for fold decrease in anti-glioma activity: relative to 14a–14c
Method: (§1) U87, Hela, MCF-7, and HHL-5 cells were provided by Chinese Academy of Medical Sciences (Beijing, China). The cancer cells were cultured in DMEM media containing 10% heat-inactivated fetal calf serum. All cells were incubated at 37 °C in a 5% CO2 humidified atmosphere and harvested in the exponential growth phase for assays.
(§2) Cells were seeded in a 96-well plate and treated with the test substance at the desired concentration for 72 h. In cytotoxicity experiments, cells were treated with 10 µM of the test compound or 1 µM XI-011 and doxorubicin as positive controls. DMSO (1%) was used as a negative control. In the IC50 analysis, doxorubicin, XI-011, 13d, 13e, 14a, 14b, and, 14n were applied to HHL-5 at 50, 25, 10, 5, 2.5, 1.25, 0.625, 0.3125, and 0.15625 µM and U87 cells at 10, 7.5, 5, […], 1.25, 0.625, 0.3125, and 0.15625 µM, whereas 30, 10, 3, 0.5, and 0.1 µM were applied to Hela and MCF-7 cells. Treated cells were incubated with an MTT solution for 2 h and then with DMSO to dissolve the crystals. Absorbance was determined at 570 nm using a microplate reader (BioTek, Seattle, DC, USA). IC50 values were calculated using the Hill model in GraphPad Prism 8.0.2 software.

[2] = system: human cervical cancer cell line HeLa; assay: MTT antiproliferative assay in HeLa cells; type: cell-based; conditions: for IC50: Homo sapiens, 72 h, MTT, mean ± SD (n = 3)
Method: as §1, §2

[3] = system: human breast cancer cell line MCF-7; assay: MTT antiproliferative assay in MCF-7 cells; type: cell-based; conditions: MCF7, 72 h, mean ± SD (n = 3)
Method: as §1, §2

[4] = system: HHL-5 human normal cell line; assay: MTT cytotoxicity assay in normal HHL-5 cells; type: cell-based; conditions: Homo sapiens, HHL-5; normal cell line, 72 h, MTT, mean ± SD (n = 3)
Method: as §1, §2

MDM4 = conditions: Figure 1, representative MDM4 inhibitors; reference not given; cited from earlier work
U87 cells = assay: Flow cytometric apoptosis analysis in U87 cells; type: cell-based, human; conditions: U87, 1 µM, 24 h
Method: Reducing MDM4 expression restores the p53 function and increases apoptotic cells. The apoptotic effects of compound 13e were determined in U87 cells by flow cytometry. […] 13e induced 21% apoptosis at 1 µM, which was slightly lower than the 23% apoptosis induced by XI-011. At 2 µM 13e, apoptosis was up to 25.9%. […] The mechanism by which 13e induces apoptosis in U87 cells may be related to its ability to downregulate MDM4 expression and stabilize p53 protein.

[5] = Homo sapiens, U-87 MG, 72 h, 10 µM, 72 h, MTT, triplicates
[6] = Homo sapiens, U-87 MG, 72 h, MTT

Compound: CCCCCCNC(=N)SCc1c2ccccc2c(C)c2ccccc12 [13l]
inhibition at 10 µM [1, 5]: 86.7% | fold potency improvement in U87 cells compared with aryl-derived compounds ([1]; U87 inhibition rate at 10 µM): 3–4 fold

IC50 ([1]; 72 h, MTT): 1240 ± 240 nM | IC50 [1, 6]: < 2000 nM | IC50 [2]: 3640 ± 270 nM | IC50 [3]: 4560 ± 30 nM
Compound: CCc1c2ccccc2c(CSC(=N)N)c2ccccc12 [14a]
inhibition at 10 µM [1, 5]: 79% | IC50 [4]: 1510 ± 160 nM

IC50 ([1]; 72 h, MTT): 1350 ± 100 nM | IC50 [1, 6]: < 2000 nM | IC50 [2]: 2660 ± 190 nM | IC50 [3]: 4550 ± 270 nM
Compound: CCc1c2ccccc2c(CSC(=N)NC)c2ccccc12 [14b]
inhibition at 10 µM [1, 5]: 94.7% | IC50 [4]: 1620 ± 130 nM

Compound: CCc1c2ccccc2c(CSC(=N)N(C)N)c2ccccc12 [14c]
inhibition at 10 µM [1, 5]: 83.6%

Compound: CCc1c2ccccc2c(CSC(=N)NC(=N)N)c2ccccc12 [14d]
inhibition at 10 µM [1, 5]: 17.3% | fold decrease in anti-glioma activity ([1]; U87 inhibition rate at 10 µM): 3~4 fold

Compound: CCc1c2ccccc2c(CSC(=N)NC(C)=O)c2ccccc12 [14e]
inhibition at 10 µM [1, 5]: 19.3% | fold decrease in anti-glioma activity ([1]; U87 inhibition rate at 10 µM): 3~4 fold

Compound: CCCCCCNC(=N)SCc1c2ccccc2c(CC)c2ccccc12 [14f]
inhibition at 10 µM [1, 5]: 43.6% | fold decrease in anti-glioma activity ([1]; U87 inhibition rate at 10 µM): 3~4 fold

Compound: CCc1c2ccccc2c(CSC(=N)Nc2ccc(C(F)(F)F)cc2)c2ccccc12 [14g]
inhibition at 10 µM [1, 5]: 28% | fold decrease in anti-glioma activity ([1]; U87 inhibition rate at 10 µM): 3~4 fold

Compound: CCCc1c2ccccc2c(CSC(=N)N)c2ccccc12 [14h]
inhibition at 10 µM [1, 5]: 64.6%

Compound: CNC(=N)SCc1c2ccccc2cc2ccccc12 [14i]
U87 (% Inhib. @ 10 µM) ([1]; 10 µM, 72 h, MTT, triplicates): 76.4% | inhibition at 10 µM [1, 5]: 83%

Compound: N=C(NN)SCc1c2ccccc2cc2ccccc12 [14j]
inhibition at 10 µM [1, 5]: 11.8%

Compound: CC(C)=NNC(=N)SCc1c2ccccc2cc2ccccc12 [14k]
inhibition at 10 µM [1, 5]: 14.2%

Compound: CC(=O)NC(=N)SCc1c2ccccc2cc2ccccc12 [14l]
inhibition at 10 µM [1, 5]: 0.7%

Compound: N=C(N)SCc1c2ccccc2c(Br)c2ccccc12 [14m]
inhibition at 10 µM [1, 5]: 36.8%

IC50 ([1]; 72 h, MTT): 1840 ± 120 nM | IC50 [1, 6]: < 2000 nM | IC50 [2]: 7740 ± 810 nM | IC50 [3]: 7600 ± 1370 nM
Compound: CNC(=N)SCc1c2ccccc2c(Br)c2ccccc12 [14n]
inhibition at 10 µM [1, 5]: 86.5% | fold reduction in anti-cervical cancer activity ([2]; bromo versus methyl and ethyl analogs (14a, 14b, XI-011)): 1–2 fold | IC50 [4]: 1670 ± 160 nM

Compound: N=C(NN)SCc1c2ccccc2c(Br)c2ccccc12 [14o]
inhibition at 10 µM [1, 5]: 50.7%

Compound: N=C(NN)SCc1c2ccccc2nc2ccccc12 [14p]
inhibition at 10 µM [1, 5]: 19%

Compound: N=C(N)SCc1c2ccccc2nc2ccccc12 [14q]
inhibition at 10 µM [1, 5]: 12.5%

Compound: CCCCCCNC(=N)SCc1c2ccccc2nc2ccccc12 [14r]
inhibition at 10 µM [1, 5]: 2.1%

Compound: N=C(N)SC1c2ccccc2CCc2ccccc21 [14s]
inhibition at 10 µM [1, 5]: 6.9% | fold less potency than XI-011 ([1]; U87 inhibition rate at 10 µM): approximately 12 fold

IC50 [1, 6]: 440 ± 60 nM | IC50 [2]: 540 ± 50 nM | IC50 [3]: 1320 ± 160 nM
Compound: COc1cccc2c1C(=O)c1c(O)c3c(c(O)c1C2=O)C[C@@](O)(C(=O)CO)C[C@@H]3O[C@H]1C[C@H](N)[C@H](O)[C@H](C)O1 [DOX, doxorubicin, reference compound]
inhibition at 10 µM [1, 5]: 81.1% | IC50 [4]: 320 ± 20 nM

Compound: CCOc1cc(/C=C2\C(=O)N(c3ccccc3)N=C2C)cc(Cl)c1OCC(=O)OC [SJ-172550]
IC50 (MDM4): 870 nM

IC50 [1, 6]: 690 ± 20 nM | IC50 [2]: 1510 ± 60 nM | IC50 [3]: 4870 ± 300 nM
Compound: Cc1c2ccccc2c(CSC(=N)N)c2ccccc12 [XI-011, (10-methylanthracen-9-yl)methyl carbamimidothioate, reference compound]
inhibition at 10 µM [1, 5]: 91.8% | IC50 [4]: 550 ± 30 nM | apoptosis (U87 cells): 23%
